The record followed here is patent US12071425B2 (Genentech, Inc., priority 2018, dated 2024).

The structures appear in SMILES notation. Where a name gives a salt, the structure may show the parent alone.

Usually IC50 stands for the midpoint of a concentration-inhibition curve. Read a high IC50 as weaker potency in that assay.

Chain of kinase domain of IRE1 alpha (His-tagged kinase dead construct KR, AA G547-L977, D688N) (O75460 547-977 D688N): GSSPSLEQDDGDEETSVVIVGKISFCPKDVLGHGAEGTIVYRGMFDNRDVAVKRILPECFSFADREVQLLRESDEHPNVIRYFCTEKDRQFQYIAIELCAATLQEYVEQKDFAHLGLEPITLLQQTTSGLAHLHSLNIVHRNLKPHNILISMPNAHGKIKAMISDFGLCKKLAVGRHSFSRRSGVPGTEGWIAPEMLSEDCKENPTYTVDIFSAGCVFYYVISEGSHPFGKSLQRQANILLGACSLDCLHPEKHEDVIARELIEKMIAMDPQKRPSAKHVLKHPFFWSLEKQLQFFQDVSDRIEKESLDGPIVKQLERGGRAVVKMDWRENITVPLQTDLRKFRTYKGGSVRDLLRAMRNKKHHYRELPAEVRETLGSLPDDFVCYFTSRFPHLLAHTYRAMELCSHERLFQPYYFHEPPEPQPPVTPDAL

The assay addresses kinase domain of IRE1 alpha (His-tagged kinase dead construct KR, AA G547-L977, D688N) (Homo sapiens (Human), UniProt O75460, D688N). The assay is described as follows: IRE1α TR-FRET competition binding assay. To be noted: competition with Kinase Tracer 236, 0.1 μM; one hour at room temperature. The method in brief:
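Compound displacement of an ATP-site fluorescent tracer (0.1 μM final) measured by TR-FRET after 1 h at room temperature. Protein, a His-tagged D688N kinase/RNase construct from Sf9 cells (0.006 μM final), was pre-bound 1 h at 4° C to Eu anti-His antibody (0.002 μM) in pH 7.5 HEPES buffer.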
In general terms: In TR-FRET formats the signal depends on donor and acceptor labels being close together.
`O=S(=O)(Cc1cccnc1C(F)(F)F)Nc1c(F)cc(Oc2ncccc2-c2ccnc(N[C@@H]3CNC[C@@H](F)C3)n2)c(F)c1F` [Compound 389, N-(2,3,6-Trifluoro-4-((3-(2-(((3S,5S)-5-fluoropiperidin-3-yl)amino)pyrimidin-4-yl)pyridin-2-yl)oxy)phenyl)-1-(2-(trifluoromethyl)pyridin-3-yl)methanesulfonamide] showed a half-inhibitory concentration (IC50) of 0.3 nM.

For the compound `O=C(Nc1ccc(Oc2ncccc2-c2ccnc(N[C@H]3CCCNC3)n2)c(F)c1F)C1CC1` [Compound 147, (S)—N-(2,3-Difluoro-4-(3-(2-(piperidin-3-ylamino)pyrimidin-4-yl)pyridin-2-yloxy)phenyl)cyclopropanecarboxamide hydrochloride], the IC50 is 210 nM. This IC50 is about 700-fold higher than that of the compound before.

The compound `Cc1c(Oc2ncccc2-c2ccnc(N[C@@H]3CNC[C@@H](F)C3)n2)cc(F)c(NS(=O)(=O)Cc2ccccc2)c1F` [Compound 179, N-(2,6-difluoro-4-((3-(2-(((3S,5S)-5-fluoro-3-piperidyl)amino)pyrimidin-4-yl)-2-pyridyl)oxy)-3-methyl-phenyl)-1-phenyl-methanesulfonamide] yielded a 50% inhibitory concentration (IC50) of 4.3 nM.

In turn, `CC(F)C1CNCC(Nc2nccc(-c3cccnc3Oc3cc(F)c(NS(=O)(=O)Cc4ccccc4)c(F)c3F)n2)C1` (single isomer, unassigned) [Compound 346, 1-Phenyl-N-(2,3,6-trifluoro-4-((3-(2-((5-(1-fluoroethyl)piperidin-3-yl)amino)pyrimidin-4-yl)pyridin-2-yl)oxy)phenyl)methanesulfonamide] returned an IC50 of 72 nM.

With `O=S(=O)(Cc1ccccc1F)Nc1c(Cl)cc(Oc2ncccc2-c2ccnc(N[C@@H]3CNC[C@@H](F)C3)n2)c(F)c1F` [Compound 323, N-(6-Chloro-2,3-difluoro-4-((3-(2-(((3S,5S)-5-fluoropiperidin-3-yl)amino)pyrimidin-4-yl)pyridin-2-yl)oxy)phenyl)-1-(2-fluorophenyl)methanesulfonamide], the IC50 was 0.33 nM.

`O=S(=O)(Nc1ccc(Oc2ncccc2-c2ccnc(N[C@H]3CCCNC3)n2)c(F)c1F)C1c2ccccc2-c2ccccc21` [Compound 381, (S)—N-(2,3-Difluoro-4-((3-(2-(piperidin-3-ylamino)pyrimidin-4-yl)pyridin-2-yl)oxy)phenyl)-9H-fluorene-9-sulfonamide] showed a concentration for half-maximal inhibition (IC50) of 1 nM. This IC50 is about 3-fold higher than that of the compound before.

Compound `O=S(=O)(Cc1ccccc1)Nc1c(F)cc(Oc2ncccc2-c2ccnc(NC3CNCC(C(F)F)C3)n2)c(F)c1F` (single isomer, unassigned) [Compound 302, N-(4-((3-(2-((5-(Difluoromethyl)piperidin-3-yl)amino)pyrimidin-4-yl)pyridin-2-yl)oxy)-2,3,6-trifluorophenyl)-1-phenylmethanesulfonamide] showed an IC50 of 0.44 nM.

`Cc1ccc(CS(=O)(=O)Nc2c(F)cc(Oc3ncccc3-c3ccnc(N[C@@H]4CNC[C@@](C)(F)C4)n3)c(F)c2F)cc1` [Compound 284, 1-p-Tolyl-N-(2,3,6-trifluoro-4-((3-(2-(((3S,5S)-5-fluoro-5-methylpiperidin-3-yl)amino)pyrimidin-4-yl)pyridin-2-yl)oxy)phenyl)methanesulfonamide] registered an IC50 of 0.15 nM. This IC50 lies about 2.9-fold lower than the previous one.

With `COc1ccc(S(=O)(=O)Nc2ccc(Oc3ncccc3-c3ccnc(N[C@H]4CCCNC4)n3)c(F)c2F)cc1` [Compound 211, (S)-N-(2,3-difluoro-4-((3-(2-(piperidin-3-ylamino)pyrimidin-4-yl)pyridin-2-yl)oxy)phenyl)-4-methoxybenzenesulfonamide], the IC50 was 33 nM.

As for `O=S(=O)(Cc1ccccc1)Nc1ccc(Oc2ncccc2-c2ccnc(N[C@H]3CC[C@H](O)CC3)n2)c(F)c1F` [Compound 182, N-(2,3-difluoro-4-((3-(2-(((1r,4r)-4-hydroxycyclohexyl)amino)pyrimidin-4-yl)pyridin-2-yl)oxy)phenyl)-1-phenylmethanesulfonamide], the IC50 stood at 9.5 nM. Against the preceding compound, the IC50 is about 3.5-fold lower.

In turn, `O=S(=O)(Cc1ccc(Cl)cc1)Nc1c(F)cc(Oc2ncccc2-c2ccnc(N[C@@H]3CNC[C@@H](F)C3)n2)c(F)c1F` [Compound 354, 1-(4-Chlorophenyl)-N-[2,3,6-trifluoro-4-[[3-[2-[[(3S,5S)-5-fluoro-3-piperidyl]amino]pyrimidin-4-yl]-2-pyridyl]oxy]phenyl]methanesulfonamide] returned an IC50 of 0.2 nM. This IC50 is about 48-fold lower than that of the compound before.

Take `COC1CNCC(Nc2nccc(-c3cccnc3Oc3cc(F)c(NS(=O)(=O)Cc4ccccc4)c(F)c3F)n2)C1` (single isomer, unassigned) [Compound 317, 1-Phenyl-N-(2,3,6-trifluoro-4-((3-(2-((5-methoxypiperidin-3-yl)amino)pyrimidin-4-yl)pyridin-2-yl)oxy)phenyl)methanesulfonamide]: the IC50 came to 140 nM.

Regarding `CN(C)C1CCC(Nc2nccc(-c3cccnc3Oc3cc(F)c(NS(=O)(=O)Cc4ccccc4)c(F)c3F)n2)CC1F` (single isomer, unassigned) [Compound 308, N-(4-((3-(2-((4-(Dimethylamino)-3-fluorocyclohexyl)amino)pyrimidin-4-yl)pyridin-2-yl)oxy)-2,3,6-trifluorophenyl)-1-phenylmethanesulfonamide], the IC50 turned out to be 83 nM. Against the preceding compound, the IC50 is about 1.7-fold lower.

Take `O=S(=O)(Cc1ccccc1)Nc1c(F)cc(Oc2ncccc2-c2ccnc(N[C@@H]3CNC[C@@H](F)C3)n2)c(F)c1F` [Compound 176, 1-Phenyl-N-(2,3,6-trifluoro-4-((3-(2-(((3S,5S)-5-fluoropiperidin-3-yl)amino)pyrimidin-4-yl)pyridin-2-yl)oxy)phenyl)methanesulfonamide]: the IC50 was 2.5 nM.

`CC(F)C1CNCC(Nc2nccc(-c3cccnc3Oc3cc(F)c(NS(=O)(=O)Cc4ccccc4)c(F)c3F)n2)C1` (single isomer, unassigned) [Compound 344, 1-Phenyl-N-(2,3,6-trifluoro-4-((3-(2-((5-(1-fluoroethyl)piperidin-3-yl)amino)pyrimidin-4-yl)pyridin-2-yl)oxy)phenyl)methanesulfonamide hydrochloride] yielded an IC50 of 19 nM. Against the preceding compound, the IC50 is about 7.6-fold higher.

As for `Cc1cc(NS(=O)(=O)Cc2ccccc2)c(F)c(F)c1Oc1ncccc1-c1ccnc(N[C@@H]2CNC[C@H](C)C2)n1` [Compound 177, N-(2,3-difluoro-5-methyl-4-((3-(2-(((3S,5R)-5-methyl-3-piperidyl)amino)pyrimidin-4-yl)-2-pyridyl)oxy)phenyl)-1-phenyl-methanesulfonamide], the IC50 turned out to be 4.9 nM.

Regarding `CCCS(=O)(=O)Nc1cc(C)c(Oc2ncccc2-c2ccnc(N[C@H]3CCCNC3)n2)cc1C` [Compound 124, (S)-N-(2,5-Dimethyl-4-((3-(2-(piperidin-3-ylamino)pyrimidin-4-yl)pyridin-2-yl)oxy)phenyl)propane-1-sulfonamide], the IC50 amounted to 210 nM.

As for `COc1cc(Oc2ncccc2-c2ccnc(N[C@@H]3CNC[C@@H](F)C3)n2)cc(F)c1NS(=O)(=O)Cc1ccccc1` [Compound 296, N-(2-Fluoro-4-((3-(2-(((3S,5S)-5-fluoropiperidin-3-yl)amino)pyrimidin-4-yl)pyridin-2-yl)oxy)-6-methoxyphenyl)-1-phenylmethanesulfonamide], the IC50 stood at 14 nM. This IC50 lies about 15-fold lower than the previous one.

In the case of `Cc1cc(NS(=O)(=O)c2ccccc2Cl)cc(F)c1Oc1ncccc1-c1ccnc(N[C@H]2CC[C@H](N)CC2)n1` [Compound 102, N-[4-[[3-[2-[(4-aminocyclohexyl)amino]pyrimidin-4-yl]-2-pyridyl]oxy]-3-fluoro-5-methyl-phenyl]-2-chloro-benzenesulfonamide hydrochloride], the IC50 is 10 nM.

`O=S(=O)(Nc1c(F)cc(Oc2ncccc2-c2ccnc(N[C@@H]3CNC[C@@H](F)C3)n2)c(F)c1F)C1CCCCC1` [Compound 368, N-(2,3,6-Trifluoro-4-((3-(2-(((3S,5S)-5-fluoropiperidin-3-yl)amino)pyrimidin-4-yl)pyridin-2-yl)oxy)phenyl)cyclohexanesulfonamide] came in with an IC50 of 0.2 nM.

`O=S(=O)(Nc1ccc(Oc2ncccc2-c2ccnc(N[C@H]3CCCNC3)n2)c(F)c1F)c1ccc(OC(F)(F)F)cc1` [Compound 223, (S)-N-(2,3-difluoro-4-((3-(2-(piperidin-3-ylamino)pyrimidin-4-yl)pyridin-2-yl)oxy)phenyl)-4-(trifluoromethoxy)benzenesulfonamide]: the IC50 was 26 nM.

`O=S(=O)(CC12CCC(CC1)CC2)Nc1c(F)cc(Oc2ncccc2-c2ccnc(N[C@@H]3CNC[C@@H](F)C3)n2)c(F)c1F` [Compound 377, 1-(Bicyclo[2.2.2]octan-1-yl)-N-(2,3,6-trifluoro-4-((3-(2-(((3S,5S)-5-fluoropiperidin-3-yl)amino)pyrimidin-4-yl)pyridin-2-yl)oxy)phenyl)methanesulfonamide] displayed an IC50 of 0.8 nM. This IC50 is about 32-fold lower than that of the compound before.

As to `O=S(=O)(Cc1ccccc1)Nc1ccc(Oc2ncccc2-c2ccnc(N[C@@H]3CNCC(F)(F)C3)n2)c(F)c1F` [Compound 183, (S)-N-(4-((3-(2-((5,5-difluoropiperidin-3-yl)amino)pyrimidin-4-yl)pyridin-2-yl)oxy)-2,3-difluorophenyl)-1-phenylmethanesulfonamide], the IC50 was 8.5 nM.

For `COc1cccc(S(=O)(=O)Nc2ccc(Oc3ncccc3-c3ccnc(N[C@H]4CCCNC4)n3)c(F)c2F)c1` [Compound 212, (S)-N-(2,3-difluoro-4-((3-(2-(piperidin-3-ylamino)pyrimidin-4-yl)pyridin-2-yl)oxy)phenyl)-3-methoxybenzenesulfonamide], the IC50 was found to be 25 nM.

In the case of `CCC(F)(F)CS(=O)(=O)Nc1c(F)cc(Oc2ncc(F)cc2-c2ccnc(N[C@@H]3CNC[C@@H](F)C3)n2)c(F)c1F` [Compound 268, 2,2-Difluoro-N-(2,3,6-trifluoro-4-((5-fluoro-3-(2-(((3S,5S)-5-fluoropiperidin-3-yl)amino)pyrimidin-4-yl)pyridin-2-yl)oxy)phenyl)butane-1-sulfonamide], the IC50 came out at 1.1 nM.
